From patent US20180312473A1, “PHENAZINE DERIVATIVES AS ANTIMICROBIAL AGENTS” (priority 2015, published 2018)
Converted amounts (≈) assume the structure as drawn. Like-named read-outs stand apart in the source and are kept apart here.

Legend:
[1] = system: human red blood cells; assay: Hemolysis assay with red blood cells; settings: human, 1 h, 200 μM, pH 7.2
Experimental: The hemolysis activities of select compounds of the invention were determined. […] The washing was repeated three times with the buffer. In 96-well plate, test compounds were added to the buffer from DMSO stocks. […] The plate was then incubated for 1 hour at 37° C. After incubation, the plate was centrifuged for 5 minutes at 3,500 rpm. Then 80 μL of the supernatant was transferred to another 96-well plate, and the optical density (OD) was read at 405 nm. DMSO served as the negative control (0% hemolysis), while Triton X served as the positive control (100% hemolysis). The percent of hemolysis was calculated as (OD405 of the compound−OD405 of DMSO)/(OD405 of Triton X−OD405 of the buffer).
The washing was repeated three times with the buffer. In 96-well plate, test compounds were added to the buffer from DMSO stocks. […] The plate was then incubated for 1 hour at 37° C. After incubation, the plate was centrifuged for 5 minutes at 3,500 rpm. Then 80 μL of the supernatant was transferred to another 96-well plate and the optical density (OD) was read at 405 nm. DMSO served as our negative control (0% hemolysis) while Triton X served as our positive control (100% hemolysis). The percent of hemolysis was calculated as (OD405 of the test compound−OD405 DMSO)/(OD405 Triton X−OD405 buffer) from three independent experiments.

[2] = system: MRSA BAA-1707; assay: MIC assay (broth microdilution, CLSI); settings: Staphylococcus aureus, read-out: MIC, MRSA BAA-1707
[3] = system: MRSA BAA-44; assay: MIC assay (broth microdilution, CLSI); settings: Staphylococcus aureus, read-out: MIC, MRSA BAA-44
[4] = system: Staphylococcus epidermidis (ATCC 35984), MRSE; assay: MIC assay (broth microdilution, CLSI); type: cell-based; settings: Staphylococcus epidermidis
[5] = system: A. baumannii 19606; assay: MIC assay (broth microdilution, CLSI); type: cell-based, Acinetobacter baumannii; settings: Acinetobacter baumannii, 19606; read-out: A. baumannii 19606 MIC
[6] = system: MRSA-2 planktonic cells and biofilms; assay: Calgary Biofilm Device (CBD) assay, MBC/MBEC; type: cell-based, Staphylococcus aureus; settings: for MBC: Staphylococcus aureus, MRSA
[7] = system: Enterococcus faecium (ATCC 700221), VRE; assay: MIC assay (broth microdilution, CLSI); type: cell-based
[8] = system: MRSA-2 (methicillin-resistant Staphylococcus aureus clinical isolate); assay: MIC assay (broth microdilution, CLSI); type: cell-based; settings: Staphylococcus aureus, MRSA, read-out: MIC, MRSA-2
[9] = system: P. aeruginosa (PAO1); assay: MIC assay (broth microdilution, CLSI); type: cell-based; settings: Pseudomonas aeruginosa, PAO1; read-out: PAO1 MIC
[10] = in vitro; type: cell-based; settings: human
Experimental: (§1) The cytotoxicities of select compounds of the invention against HeLa cells were determined. HeLa cytotoxicity was assessed using the LDH release assay described by CYTOTOX96 (Promega G1780). HeLa cells were grown in Dulbecco's Modified Eagle Medium (DMEM; Gibco) supplemented with 10% Fetal Bovine Serum (FBS) at 37° C. with 5% CO2. […] Triton X-100 (at 2% v/v) was used as the positive control for maximum lactate dehydrogenate (LDH) activity in this assay (e.g., complete cell death), while “medium only” lanes served as negative control lanes (e.g., no cell death). DMSO was used as the vehicle control. […] Finally, Stop Solution (50 μL) was added to the incubating plates, and the absorbance was measured at 490 nm.
(§2) HeLa cytotoxicity was assessed using the LDH release assay described by CYTOTOX96 (Promega G1780). HeLa cells were grown in Dulbecco's Modified Eagle Medium (DMEM; Gibco) supplemented with 10% Fetal Bovine Serum (FBS) at 37° C. with 5% CO2. […] Triton X-100 (at 2% v/v) was used as the positive control for maximum lactate dehydrogenate (LDH) activity in this assay (e.g., complete cell death), while “medium only” lanes served as negative control lanes (e.g., no cell death). DMSO was used as our vehicle control. […] Finally, Stop Solution (50 μL) was added to the incubating plates and the absorbance was measured at 490 nm. Results are from three independent experiments (FIG. 19)

[11] = system: E. coli UAEC-1; assay: MIC assay (broth microdilution, CLSI); type: cell-based; settings: Escherichia coli, UAEC1; read-out: E. coli UAEC-1 MIC
[12] = system: Staphylococcus epidermidis (ATCC 12228); assay: MIC assay (broth microdilution, CLSI); type: cell-based; settings: Staphylococcus epidermidis, ATCC12228
[13] = system: MRSE (S. epidermidis ATCC 35984) planktonic cells and biofilms; assay: Calgary Biofilm Device (CBD) assay, MBC/MBEC; type: cell-based, Staphylococcus epidermidis; settings: Staphylococcus epidermidis; Table 8; read-out: MRSE 35984 MBC
[14] = system: VRE (E. faecium ATCC 700221) planktonic cells and biofilms; assay: Calgary Biofilm Device (CBD) assay, MBC/MBEC; type: cell-based, Enterococcus faecium; settings: Enterococcus; Table 8; c lowest concentration tested; read-out: VRE 700221 MBC
[15] = system: HeLa cells; assay: in vitro; type: cell-based; settings: human, 24 h
Experimental: as §1, §2

[16] = system: K. pneumoniae 13883; assay: MIC assay (broth microdilution, CLSI); type: cell-based, Klebsiella pneumoniae; settings: Klebsiella pneumoniae, 13883; read-out: K. pneumoniae 13883 MIC
[17] = Table 2A, read-out: MIC, Staphylococcus epidermidis (ATCC 35984)
[18] = Table 7, read-out: MIC, MRSE 35984
[19] = Table 8, a/b 2-/4-fold range in independent experiments, read-out: MRSA-2 MBC
[20] = Enterococcus faecium, Table 2A, read-out: MIC, Enterococcus faecium (ATCC 700221)
[21] = Table 7, b lowest concentration tested, read-out: MIC, VRE 700221
[22] = Table 7, a midpoint of 2-fold range, b lowest concentration tested
[23] = Table 2A, read-out: MIC, Staphylococcus epidermidis (ATCC 12228)
[24] = Table 7, b lowest concentration tested, read-out: MIC, S. epidermidis 12228

| Compound | % Hemolysis (200 μM) [1] [%] | % Hemolysis at 200 μM [1] [%] | MIC [2] [µM] | MIC [3] [µM] | MIC [4, 17] [µM] | MIC [4, 18] [µM] | MIC [5] [µM] | MBC ([6]; Table 4, read-out: MBC, MRSA-2) [µM] | MBC [6, 19] [µM] | MIC [7, 20] [µM] | MIC [7, 21] [µM] | MIC ([8]; Table 2A) [µM] | MIC [8, 22] [µM] | MIC [9] [µM] | IC50 at 24 h [10] [µM] | MIC [11] [µM] | MIC [12, 23] [µM] | MIC [12, 24] [µM] | MBC [13] [µM] | melting point [°C] | other results |
| --- | --- | --- | --- | --- | --- | --- | --- | --- | --- | --- | --- | --- | --- | --- | --- | --- | --- | --- | --- | --- | --- |
| Oc1c(Br)cc(Br)c2nccnc12 [Compound 25] | 1.8 | 1.8 | 6.25 (≈ 1.9 µg/mL) | 12.5 (≈ 3.8 µg/mL) | 12.5 to 25 (≈ 3.8 to 7.6 µg/mL) | 18.8 (≈ 5.71 µg/mL) | 6.25 (≈ 1.9 µg/mL) | 1500 (≈ 456 µg/mL) | 1500 (≈ 456 µg/mL) | 100 (≈ 30.4 µg/mL) | 100 (≈ 30.4 µg/mL) | 25 (≈ 7.6 µg/mL) | 25 (≈ 7.6 µg/mL) | > 100 | > 100 | 12.5 (≈ 3.8 µg/mL) | 12.5 to 25 (≈ 3.8 to 7.6 µg/mL) | 18.8 (≈ 5.71 µg/mL) |  |  |  |
| Oc1c(Cl)cc(Br)c2nc3ccccc3nc12 [Compound 5, 4-Bromo-2-chloro-1-hydroxyphenazine] | ≤1 | ≤1 |  | 3.13 (≈ 0.969 µg/mL) |  |  |  | 62.5 (≈ 19.3 µg/mL) | 62.5 (≈ 19.3 µg/mL) | 6.25 (≈ 1.93 µg/mL) | 6.25 (≈ 1.93 µg/mL) |  |  |  | > 100 |  | 3.13 (≈ 0.969 µg/mL) | 3.13 (≈ 0.969 µg/mL) | 31.3 (≈ 9.69 µg/mL) | 229 to 231 | MBC [14]: 11.7 µM (≈ 3.62 µg/mL); IC50 [15]: > 100 µM |
| Oc1cccc2nc3cc(Cl)c(Cl)cc3nc12 [Compound 21] | ≤1 |  |  |  | > 100 | > 100 | > 100 |  |  | > 100 | > 100 | > 100 | > 100 | > 100 |  | > 100 | > 100 | > 100 |  |  | MIC [16]: > 100 µM |
| Oc1c(I)cc(Cl)c2nc3ccccc3nc12 [Compound 9, 4-Chloro-2-iodo-1-hydroxyphenazine] | ≤1 | ≤1 | 3.13 (≈ 1.12 µg/mL) | 12.5 (≈ 4.46 µg/mL) | 25 (≈ 8.91 µg/mL) | 25 (≈ 8.91 µg/mL) |  | 93.8 (≈ 33.4 µg/mL) | 93.8 (≈ 33.4 µg/mL) | 6.25 (≈ 2.23 µg/mL) | 6.25 (≈ 2.23 µg/mL) | 25 (≈ 8.91 µg/mL) | 25 (≈ 8.91 µg/mL) |  |  |  | 25 (≈ 8.91 µg/mL) | 25 (≈ 8.91 µg/mL) | 125 (≈ 44.6 µg/mL) | 175 to 177 | MBEC:MBC ratio, MRSA-2 ([6]; Table 4): 2.7 |
